Several values for one entry are separate records, joined by “and”; a condition that tells them apart may be missing. Identical values can stand only once. Like-named read-outs stand apart in the source and are kept apart here. Blank lines part the entries; values can stand above or below the compound they belong to.
Assays:
Format in all cases: biochemical
HGFA [1] = biological target: T1, HGFA (Homo sapiens, UniProt Q04756); assay: Chromogenic kinetic enzyme inhibitor assay of HGFA; settings: Table 4.1; chromogenic substrate Pefachrome FVIIa
T1 construct: His6 tag (N); seven amino acid spacer and seven amino acid TEV cleavage site (N); Honey Bee melittin signal peptide (N); made in house; host or cells: High 5 insect cells (baculovirus; virus raised in Sf9)
T1 sequence (Q04756 373-655): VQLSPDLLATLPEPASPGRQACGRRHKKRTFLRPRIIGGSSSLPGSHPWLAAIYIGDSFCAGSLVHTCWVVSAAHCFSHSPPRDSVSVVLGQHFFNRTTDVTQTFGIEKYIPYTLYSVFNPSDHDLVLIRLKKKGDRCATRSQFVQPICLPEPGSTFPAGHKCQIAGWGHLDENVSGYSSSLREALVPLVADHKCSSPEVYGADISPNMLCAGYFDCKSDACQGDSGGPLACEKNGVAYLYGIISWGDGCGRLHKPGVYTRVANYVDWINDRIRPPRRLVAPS
Description: This PCR product was cloned into the SfoI-HindIII sites of a modified pFastBac HT baculovirus expression vector (Addgene, Cambridge, Mass.). This vector contains a six amino His tag followed by a seven amino spacer and a seven amino acid TEV cleavage site placed immediately downstream of the Honey Bee melittin signal peptide. Using a modified Bac to Bac Expression System (Life Technologies, Carlsbad, Calif.), recombinant HGFA bacmids were obtained by transforming DH10Bac Escherichia coli cells. To obtain HGFA containing baculovirus, purified bacmids were transfected into Sf9 insect cells. After 5 days in culture at 27° C., media was harvested from transfected Sf9 cells. This media was used to prepare baculovirus infected insect cells (BIICs). These BIIICs were used to infect High 5 insect cells. Four days post infection, media was harvested and recombinant protein prepared as follows. Media was chilled to 4° C. and spun at 4000×g for 20 minutes (all subsequent steps were performed at 4° C. unless noted). […] Concentrated media was then buffer exchanged in two steps, five volumes of 50 mM Na-phosphate, 500 mM NaCl, pH 6.2, followed by five volumes of 50 mM Na-phosphate, 500 mM NaCl, pH 7.5. […] After mixing this slurry for 12 hours, nickel agarose beads were allowed to settle by gravity and then loaded into a column. Beads were washed with buffer (25 mM Na-phosphate, 500 mM NaCl, 25 mM imidazole, pH 8) and the bound protein eluted using (25 mM Na-phosphate, 500 mM NaCl, 250 mM imidazole, pH 8). Using a Amicon Ultra-4 Centrifugal filters (#UFC801008, Merck Millipore, Ltd., Tullagreen, Ireland), peak protein fractions were concentrated and run over a Superdex-200 10/300 GL column (GE Healthcare Life Sciences, Piscataway, N.J.) in 10 mM Tris, 200 mM NaCl, 0.2 mM EDTA, pH 8. HGFA containing fractions were pooled, concentrated, made 50% glycerol, and stored at minus 20° C. Protein was quantitated using a modified Lowry protein assay (#500-0006, Bio-Rad Laboratories, Hercules, Calif.).
Using Gen 5 2.00 software program (Biotek, Winnoski, Vt.), a four parameter curve fit was used to determine the inhibitor IC50s from a plot of the mean reaction velocity versus the inhibitor concentration. The IC50 values represent the average of three separate experimental determinations.

thrombin = thrombin (Homo sapiens, UniProt P00734); assay: Chromogenic kinetic enzyme assay of thrombin; settings: for Ki: read-out: Thrombin Ki
Method: Inhibitors (11-pt serial dilutions, 0-20 μM final concentration) were serially diluted in DMSO (2% DMSO final concentration) and then mixed with recombinant thrombin (0.15 nM final concentration) or Factor Xa (0.35 nM final concentration) in TNC buffer (25 mM Tris, 150 mM NaCl, 5 mM CaCl2, 0.01% TRITON X-100, pH 8) using clear 384 well plates. […] Changes in absorbance at 405 nm were measured over time in a Biotek Synergy 2 plate (Winnoski, Vt.). Using GraphPad Prism version 6.04 software program, (GraphPad Software, San Diego, Calif., www.graphpad.com), a four parameter curve fit was used to determine the inhibitor IC50s from a plot of the mean reaction velocity versus the inhibitor concentration. Ki values were calculated from the IC50 values using the Cheng and Prusoff equation (Ki=IC50/(1+[S]/Km).

HGFA [2] = biological target: T1, HGFA; assay: Fluorescent kinetic enzyme inhibitor assay of HGFA; settings: Fluorogenic Assay, read-out: HGFA Ki
Description: Using primers identified as SEQ ID NO 1, SEQ ID NO 2, and standard PCR protocols, the nucleotide sequence encoding amino acids 373-655 of HGFA was synthesized. This PCR product was cloned into the SfoI-HindIII sites of a modified pFastBac HT baculovirus expression vector (Addgene, Cambridge, Mass.). This vector contains a six amino His tag followed by a seven amino spacer and a seven amino acid TEV cleavage site placed immediately downstream of the Honey Bee melittin signal peptide. Using a modified Bac to Bac Expression System (Life Technologies, Carlsbad, Calif.), recombinant HGFA bacmids were obtained by transforming DH10Bac Escherichia coli cells. To obtain HGFA containing baculovirus, purified bacmids were transfected into Sf9 insect cells. After 5 days in culture at 27° C., media was harvested from transfected Sf9 cells. This media was used to prepare baculovirus infected insect cells (BIICs). These BIIICs were used to infect High 5 insect cells. Four days post infection, media was harvested and recombinant protein prepared as follows. Media was chilled to 4° C. and spun at 4000×g for 20 minutes (all subsequent steps were performed at 4° C. unless noted). Clarified media was passed first through a Whatman GF/B 1 um (#1821-047, GE Healthcare Life Sciences, Piscataway, N.J.) and then a 0.22 um PES membrane (#99955, TPP Techno Plastic Products AG, Trasadingen, Switzerland) and then concentrated using a Pall Centramate tangential flow system and Centramate T-series Cassette (#OS010T12, Pall Corporation, Port Washington, N.Y.). Concentrated media was then buffer exchanged in two steps, five volumes of 50 mM Na-phosphate, 500 mM NaCl, pH 6.2, followed by five volumes of 50 mM Na-phosphate, 500 mM NaCl, pH 7.5. The concentrated and buffered exchanged insect cell media was again filtered as above and made 25 mM imidazole (#1202, Sigma-Aldrich, St. Louis, Mo.) and was mixed with nickel agarose beads (#H-321-25, Gold Biotechnology, Inc., St. Louis Mo.). After mixing this slurry for 12 hours, nickel agarose beads were allowed to settle by gravity and then loaded into a column. Beads were washed with buffer (25 mM Na-phosphate, 500 mM NaCl, 25 mM imidazole, pH 8) and the bound protein eluted using (25 mM Na-phosphate, 500 mM NaCl, 250 mM imidazole, pH 8). Using a Amicon Ultra-4 Centrifugal filters (#UFC801008, Merck Millipore, Ltd., Tullagreen, Ireland), peak protein fractions were concentrated and run over a Superdex-200 10/300 GL column (GE Healthcare Life Sciences, Piscataway, N.J.) in 10 mM Tris, 200 mM NaCl, 0.2 mM EDTA, pH 8. HGFA containing fractions were pooled, concentrated, made 50% glycerol, and stored at minus 20° C. Protein was quantitated using a modified Lowry protein assay (#500-0006, Bio-Rad Laboratories, Hercules, Calif.).
(§1) Inhibitors (11-pt serial dilutions, 0-20 μM final concentration in reaction) were serially diluted in DMSO (2% DMSO final concentration) and then mixed with either recombinant serine protease domain of HGFA [Z. Han, P. K. Harris, D. E. Jones, R. Chugani, T. Kim, M. Agarwal, W. Shen, S. A. Wildman, J. W. Janetka, Acs Med Chem Lett 2014, 5, 1219-1224], matriptase (Charles Craik, UCSF) or hepsin* (#4776-SE-010, R&D Systems, Minneapolis, Minn.) in black 384 well plates (Corning #3575. Corning, N.Y.). […] The final substrate concentrations for all assays were at the Km for the respective enzymes. Changes in fluorescence (excitation at 380 nm and emission at 460 nm) were measured at room temperature over time in a Biotek Synergy 2 plate reader (Winnoski, Vt.). Using GraphPad Prism version 6.04 software program, (GraphPad Software, San Diego, Calif., www.graphpad.com), a four parameter curve fit was used to determine the inhibitor IC50s from a plot of the mean reaction velocity versus the inhibitor concentration. The IC50 values represent the average of three separate experimental determinations.

hepsin = biological target: T2, hepsin (Homo sapiens, UniProt P05981); assay: Fluorescent kinetic enzyme inhibitor assay of hepsin; settings: Fluorogenic Assay, read-out: Hepsin Ki
T2 construct: purchased R&D Systems 4776-SE-010
T2 sequence (P05981 163-417 limits assumed): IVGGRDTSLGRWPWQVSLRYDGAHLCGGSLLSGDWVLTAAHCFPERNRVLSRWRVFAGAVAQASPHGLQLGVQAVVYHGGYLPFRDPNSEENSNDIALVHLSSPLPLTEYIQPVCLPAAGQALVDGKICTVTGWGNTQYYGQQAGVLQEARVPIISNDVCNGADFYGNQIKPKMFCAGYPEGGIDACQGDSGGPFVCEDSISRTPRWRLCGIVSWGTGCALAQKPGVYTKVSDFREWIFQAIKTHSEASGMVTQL
T2 sequence (P05981 45-162 partner limits assumed): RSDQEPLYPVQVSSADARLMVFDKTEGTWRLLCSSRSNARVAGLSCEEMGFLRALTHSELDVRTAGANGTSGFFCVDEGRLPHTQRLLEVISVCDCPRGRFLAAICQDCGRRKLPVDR
Method: as §1

matriptase = biological target: T3, matriptase (Homo sapiens, UniProt Q9Y5Y6); assay: Fluorescent kinetic enzyme inhibitor assay of matriptase; settings: Fluorogenic Assay
T3 construct: Charles Craik, UCSF (obtained from another laboratory)
T3 sequence (Q9Y5Y6 615-855 limits assumed): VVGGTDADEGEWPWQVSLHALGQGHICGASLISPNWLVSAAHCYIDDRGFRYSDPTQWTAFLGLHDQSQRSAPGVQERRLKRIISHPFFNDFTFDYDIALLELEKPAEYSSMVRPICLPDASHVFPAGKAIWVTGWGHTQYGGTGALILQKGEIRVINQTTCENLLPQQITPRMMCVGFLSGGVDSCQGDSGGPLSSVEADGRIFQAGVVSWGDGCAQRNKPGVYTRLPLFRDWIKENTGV
Method: as §1

IC50 (HGFA [1]): 10800 nM
SMILES: CC(=O)N[C@@H](CO)C(=O)N[C@@H](CCCCN)C(=O)N[C@@H](Cc1ccccc1)C(=O)N[C@H](CCCNC(=N)N)C(=O)c1nccs1 [Compound 6c-1, Ac-SKFdR-kt]

Ki (thrombin; Table 9.4): > 2000 nM | Ki (HGFA [2]; Table 9.1): 17800 nM
SMILES: CC(C)c1cc(C(C)C)c(S(=O)(=O)N[C@@H](Cc2cccc(C(=N)N)c2)C(=O)N2CCN(C(=O)C3CCN(C(=N)N)CC3)CC2)c(C(C)C)c1 [JWJ-I-135]

Ki (hepsin; Table 9.3): > 10000 nM | Ki (matriptase; Table 9.3): > 10000 nM | Ki (HGFA [2]; Table 9.3): > 50000 nM
SMILES: Cc1nc(-c2cccc(C[C@H](NS(=O)(=O)c3ccc4ccccc4c3)C(=O)N3CCN(C(=O)NCc4ccccc4)CC3)c2)no1 [FMF-1-254-004]

Km (thrombin; read-out: Km of chromogenic substrate for thrombin): 14.5 µM
SMILES: N=C(N)NCCC[C@H](NC(=O)[C@@H]1CCCCN1C(=O)[C@H](N)Cc1ccccc1)C(=O)Nc1ccc([N+](=O)[O-])cc1 [Compound S2238, D-Phe-Pip-Arg-pNA, reference compound]

Ki (hepsin; Table 9.1): 3750 nM | Ki (matriptase; Table 9.1): 1200 nM | Ki (HGFA [2]; Table 9.1): > 50000 nM
SMILES: N=C(N)c1cccc(C[C@H](NS(=O)(=O)c2ccc3ccccc3c2)C(=O)N2CCN(C(=O)c3csc4ccccc34)CC2)c1 [Compound 25e, (S)-3-(3-(4-(Benzo[b]thiophene-3-carbonyl)piperazin-1-yl)-2-(naphthalene-2-sulfonamido)-3-oxopropyl)benzimidamide]

Ki (hepsin; Table 9.2): 2300 nM | Ki (matriptase; Table 9.2): 1000 nM | Ki (HGFA [2]; Table 9.2): > 50000 nM
SMILES: Cc1ccc(S(=O)(=O)N[C@@H](Cc2cccc(C(=N)N)c2)C(=O)N2CCC[C@H](NC(=O)OCc3ccccc3)C2)cc1 [Compound 18, Benzyl (S)-1-((S)-3-(3-carbamimidoylphenyl)-2-(4-methylphenylsulfonamido)propanoyl)piperidin-3-ylcarbamate]

Ki (hepsin; Table 9.2): 2800 nM | Ki (matriptase; Table 9.2): 4900 nM | Ki (HGFA [2]; Table 9.2): > 50000 nM
SMILES: N=C(N)c1cccc(C[C@H](NS(=O)(=O)c2ccc3ccccc3c2)C(=O)N2CCC[C@@H](NC(=O)OCc3ccccc3)C2)c1 [Compound 25f, Benzyl (R)-1-((S)-3-(3-carbamimidoylphenyl)-2-(naphthalene-2-sulfonamido)propanoyl)piperidin-3-ylcarbamate]

Ki (hepsin; Table 9.1): 1300 nM and 1280 nM | Ki (matriptase; Table 9.1): 14900 nM | Ki (matriptase; Table 9.1, listed as FMF-1-278-003): 14900 nM | Ki (HGFA [2]; Table 9.1): > 50000 nM
SMILES: CCCCCCNC(=O)N1CCN(C(=O)[C@H](Cc2cccc(C(=N)N)c2)NS(=O)(=O)c2ccc3ccccc3c2)CC1 [Compound 25d, (S)-4-(3-(3-Carbamimidoylphenyl)-2-(naphthalene-2-sulfonamido)propanoyl)-N-hexylpiperazine-1-carboxamide]

Ki (hepsin; Table 9.2): 670 nM | Ki (matriptase; Table 9.2): 1300 nM | Ki (HGFA [2]; Table 9.2): > 50000 nM
SMILES: Cc1ccc(S(=O)(=O)N[C@@H](Cc2cccc(C(=N)N)c2)C(=O)N2CCCC(C(=O)NCCc3ccccc3)C2)cc1 (stereo partly drawn) [Compound 25c, 1-((S)-3-(3-Carbamimidoylphenyl)-2-(4-methylphenylsulfonamido)propanoyl)-N-phenethylpiperidine-3-carboxamide]

Ki (thrombin; Table 6.2, headed Fluorogenic Assay): 1620 nM
SMILES: CC(=O)N[C@@H](CCCCN)C(=O)N[C@@H](CCCNC(=N)N)C(=O)N[C@@H](CC(C)C)C(=O)N[C@@H](CCCNC(=N)N)C(=O)c1nc2ccc(C(=O)NCc3ccc(C(=O)O)cc3)cc2s1 [Compound 7164, Ac-KRLR(SEQ ID NO: 8)-kbt-Benzyl-3-COOH]

Ki (hepsin; Table 9.1): 1000 nM and 1040 nM | Ki (matriptase; Table 9.1): 2060 nM and 2560 nM | Ki (HGFA [2]; Table 9.1, listed as FMF-1-279-003): 14000 nM | Ki (HGFA [2]; Table 9.1): 14000 nM
SMILES: N=C(N)c1cccc(C[C@H](NS(=O)(=O)c2ccc3ccccc3c2)C(=O)N2CCN(C(=O)NCc3ccccc3)CC2)c1 [Compound 17a, (S)—N-Benzyl-4-(3-(3-carbamimidoylphenyl)-2-(naphthalene-2-sulfonamido)propanoyl)piperazine-1-carboxamide]

From patent publication US11130780B2, “Inhibitors of growth factor activation enzymes” (Washington University, priority 2015, dated 2021)
